In patent US20100075907A1, “NEUROMEDIN U RECEPTOR AGONISTS AND USES THEREOF” (priority 2006, published 2010):
No end group written: not given here.

Biological target: T1, hNMUR1 (Homo sapiens, UniProt Q9HB89)
T1 sequence (Q9HB89 1-426): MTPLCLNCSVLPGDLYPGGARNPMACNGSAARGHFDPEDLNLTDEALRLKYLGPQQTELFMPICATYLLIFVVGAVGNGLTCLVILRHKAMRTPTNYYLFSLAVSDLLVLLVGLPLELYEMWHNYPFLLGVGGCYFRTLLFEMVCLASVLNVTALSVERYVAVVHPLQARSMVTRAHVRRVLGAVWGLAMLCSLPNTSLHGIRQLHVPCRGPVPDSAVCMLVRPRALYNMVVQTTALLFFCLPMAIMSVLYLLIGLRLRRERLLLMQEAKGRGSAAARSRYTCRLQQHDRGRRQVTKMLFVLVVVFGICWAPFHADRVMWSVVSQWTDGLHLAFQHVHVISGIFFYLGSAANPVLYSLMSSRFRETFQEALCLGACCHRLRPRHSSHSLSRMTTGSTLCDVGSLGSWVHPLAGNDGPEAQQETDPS
Experiment: In vitro functional assay, HEK-hR1 cells
Assay type: cell-based
Design: expressed in transfected cells; host or cells: FLP-In CHO or HEK-293 FLP-In cells (pcDNA5); HEK-293/aeq17 lines (pIRES-puro) were also made
From the text: Human, mouse or rat cDNAs encoding NMUR1 or NMUR2 (as described in Howard et al. Nature 406: 70-74 (2000) were subcloned in pcDNA5 (Invitrogen) and transfected into FLP-In CHO cells and HEK-293 FLP-In cells purchased from Invitrogen (Carlsbad, Calif.) using lipofectamine (Invitrogen). The Flp-In system allows integration and expression of a particular gene of interest at a specific genomic location utilizing the Flp recombinase from yeast. The transfected cells were selected by growth in medium containing 200 μg/mL hygromycin (Invitrogen). Populations were frozen at early passage numbers, and these stocks were used for further studies. Stable clones that expressed the mRNAs were identified functionally by FLIPR as well as by RT-PCR. […] Two different rodent NMUR1 cell lines were thus generated: one with the codon as predicted from the genomic databases and another cell line with an engineered methionine (ATG) as the start codon. Additionally, stable cell lines expressing the human receptors were generated in HEK-293/aeq17 cells which stably express the aequorin gene under the CMV promoter. The human NMUR2 cDNA was cloned into pcDNA3.1 and human NMUR1 was subcloned into pIRES-puro (Clontech, Mountain View, Calif.), after transfection cells were selected in media containing G418 and either hygromycin (NMUR2) or puromycin (NMUR1).
The NMU receptors signal primarily through Gαq/11 proteins; therefore calcium mobilization assays can be utilized for functional activity.
Stable cell lines expressing human and or rodent NMUR1 or human NMUR2 receptors were plated at a density of 12,000 cells per well overnight on poly-lysine coated 384-well black-walled plates. The following day, the media was removed from the plates and the cells were subsequently loaded with Fluo-3 (Molecular Probes), a calcium sensitive dye, diluted in FLIPR buffer (1× Hank's buffered saline containing 20 mM HEPES, 0.1% BSA, 2.5 mM probenecid (Sigma) and 1.6 mM TR40). All reagents are from Invitrogen unless otherwise noted. Peptide stocks were resuspended in DMSO at a stock concentration of 2 mM and diluted in FLIPR buffer on the day of the experiment to a 4 μM working stock solution.
After a 90 minute incubation at room-temperature, cell plates were loaded onto a FLIPR (Molecular Devices) to monitor cellular fluorescence (excitation=488 nm; emission=540 nm) before and after compound/peptide addition. Eight to twelve point dose responses were tested on NMUR-expressing cell lines using FLIPR with 1 μM peptide as the highest dose. The response after peptide addition was taken as the maximum fluorescence units minus the fluorescence immediately prior to stimulation for each well. EC50 values were calculated using GraphPad Prism (San Diego, Calif.) software.
In addition to FLIPR, NMU receptor function can also be evaluated using an aequorin assay. Stable cell lines expressing the aequorin jelly fish gene can be used to report the activation of GPCRs by monitoring intracellular calcium mobilization. The objective is to identify compounds which specifically stimulate aequorin bioluminescence. Calcium-dependent luminescence is generated by the treatment of cells with the coelenterate luciferin, coelenterazine. Briefly, confluent monolayers of HEK-293/aeq 17 cells expressing hNMUR1 or hNMUR2 are “charged” with coelenterazine (Molecular Probes, Carlsbad, Calif.). Confluent T75 flasks are rinsed with media containing 300 μM glutathione and 0.1% FBS. Cells are incubated at 37° C. for one hour in 8 mL media, 0.1% FBS, 300 μM glutathione, and 20 μM coelenterazine. T75 flasks are subsequently rinsed with 6 mL ECB buffer (140 mM NaCl, 20 mM KCl, 20 mM HEPES, 5 mM glucose, 1 mM MgCl, 1 mM CaCl2, 0.1 mg/mL BSA, PH 7.3-7.4). Cells are removed from the flask in ECB buffer, pelleted, and resuspended at a density of 2×10^5 cells/mL. Agonists are added to the cells and activity is determined using a luminometer. […]

Substance	% Activity (Table 9, HEK-hR1, functional) [%]	EC50 (Table 9, HEK-hR1, functional) [nM]	% Activity (Table 8, HEK-hR1, functional) [%]	IC50 (Table 8, HEK-hR1, functional) [nM]
H-FWLFRARN-NH2 [Agonist L]	74	> 1000	–	–
H-YFGWRPRN-NH2 [Agonist C]	–	–	87	1.1
WALFRARN-NH2 [Agonist M]	0	> 1000	–	–
YFWRPRN-NH2 [Agonist A, YFWRPRN-CONH2]	–	–	92	2.7
